In ChEMBL document CHEMBL6109097, “Structure-based design of novel 2,4,5-trisubstituted pyrimidine derivatives as potent HIV-1 NNRTIs by exploiting the tolerant regions in NNTRIs binding pocket” (Eur J Med Chem, 2025):

Tests used:
[1] = test system: Human immunodeficiency virus 1; assay: Antiviral activity against wild type HIV-1 IIIB infected in human MT4 cells assessed as protection against virus-induced cytopathic effect incubated for 5 days by MTT assay; assay type: functional, organism-based; conditions: Human immunodeficiency virus 1, IIIB, MT4, 120 h
[2] = Selectivity index, ratio of CC50 for cytotoxicity against human MT4 cells assessed as reduction in cell viability to EC50 for antiviral activity against human MT4 cells assessed as protection against virus-induced cytopathic effect; assay type: toxicity, cell-based; conditions: read-out: Ratio CC50/EC50
[3] = Cytotoxicity against human MT4 cells assessed as reduction in cell viability incubated for 5 days by MTT assay; assay type: toxicity, cell-based; conditions: time 5 day
[4] = test system: Human immunodeficiency virus 1; assay: Antiviral activity against NNRTI-resistant HIV-1 harboring E138K mutant infected in human MT4 cells assessed as protection against virus-induced cytopathic effect incubated for 5 days by MTT assay; assay type: functional, organism-based; conditions: Human immunodeficiency virus 1, MT4, 120 h
[5] = molecular target: Human immunodeficiency virus type 1 reverse transcriptase (Human immunodeficiency virus 1, UniProt Q72547); assay: Inhibition of wild type HIV-1 reverse transcriptase assessed as reduction in biotin-dUTP incorporation in cDNA preincubated with compound for 1 hr in presence of biotin-labeled dNTPs by ELISA
[6] = test system: Human immunodeficiency virus 1; assay: Antiviral activity against NNRTI-resistant HIV-1 harboring F227L/V106A double mutant infected in human MT4 cells assessed as protection against virus-induced cytopathic effect incubated for 5 days by MTT assay; assay type: functional, organism-based; conditions: Human immunodeficiency virus 1, MT4, 120 h
[7] = test system: Human immunodeficiency virus 1; assay: Antiviral activity against NNRTI-resistant HIV-1 harboring Y181C mutant infected in human MT4 cells assessed as protection against virus-induced cytopathic effect incubated for 5 days by MTT assay; assay type: functional, organism-based; conditions: Human immunodeficiency virus 1, MT4, 120 h
[8] = test system: Human immunodeficiency virus 1; assay: Antiviral activity against NNRTI-resistant HIV-1 harboring Y188L mutant infected in human MT4 cells assessed as protection against virus-induced cytopathic effect incubated for 5 days by MTT assay; assay type: functional, organism-based; conditions: Human immunodeficiency virus 1, MT4, 120 h
[9] = test system: Human immunodeficiency virus 1; assay: Antiviral activity against NNRTI-resistant HIV-1 harboring RES056 mutant infected in human MT4 cells assessed as protection against virus-induced cytopathic effect incubated for 5 days by MTT assay; assay type: functional, organism-based; conditions: Human immunodeficiency virus 1, MT4, 120 h
[10] = test system: Human immunodeficiency virus 1; assay: Antiviral activity against NNRTI-resistant HIV-1 harboring K103N mutant infected in human MT4 cells assessed as protection against virus-induced cytopathic effect incubated for 5 days by MTT assay; assay type: functional, organism-based; conditions: Human immunodeficiency virus 1, MT4, 120 h
[11] = test system: Human immunodeficiency virus 1; assay: Antiviral activity against NNRTI-resistant HIV-1 harboring L100I mutant infected in human MT4 cells assessed as protection against virus-induced cytopathic effect incubated for 5 days by MTT assay; assay type: functional, organism-based; conditions: Human immunodeficiency virus 1, MT4, 120 h

Row | SMILES | EC50 [1] [nM] | selectivity ratio [2] | CC50 at 120 h [3] [nM] | EC50 [4] [nM] | IC50 [5] [nM] | EC50 [6] [nM] | EC50 [7] [nM] | EC50 [8] [nM] | EC50 [9] [nM] | EC50 [10] [nM] | EC50 [11] [nM]
1 | Cc1cc(/C=C/C#N)cc(C)c1Oc1nc(Nc2ccc(N3CCN(S(C)(=O)=O)CC3)c(F)c2)ncc1-c1cnc(F)nc1 | 6.3 | 95 | 600 | – | – | – | – | – | – | – | –
2 | Cc1cc(/C=C/C#N)cc(C)c1Oc1nc(Nc2ccc(N3CCN(S(C)(=O)=O)CC3)c(C#N)c2)ncc1-c1cnc(F)nc1 | 39 | 784 | 30900 | – | – | – | – | – | – | – | –
3 | Cc1cc(/C=C/C#N)cc(C)c1Oc1nc(Nc2ccc(N3CCN(S(C)(=O)=O)CC3)c(F)c2)ncc1-c1cnc(N)nc1 | 7.3 | 918 | 6700 | – | – | – | – | – | – | – | –
4 | Cc1cc(/C=C/C#N)cc(C)c1Oc1nc(Nc2ccc(N3CCS(=O)(=O)CC3)c(C#N)c2)ncc1-c1ccc(N)nc1 | 41 | 16 | 700 | – | – | – | – | – | – | – | –
5 | Cc1cc(/C=C/C#N)cc(C)c1Oc1nc(Nc2ccc(N3CCS(=O)(=O)CC3)c(C#N)c2)ncc1-c1cnc(N)nc1 | 31 | 22 | 800 | – | – | – | – | – | – | – | –
6 | Cc1cc(/C=C/C#N)cc(C)c1Oc1nc(Nc2ccc(N3CCN(S(C)(=O)=O)CC3)c(F)c2)ncc1-c1ccc(N)nc1 | 5.8 | 13000 | 75600 | 29.8 | 270 | 180 | 180 | 700 | 100 | 6.6 | 43
7 | Cc1cc(/C=C/C#N)cc(C)c1Oc1nc(Nc2ccc(N3CCN(S(C)(=O)=O)CC3)c(C#N)c2)ncc1-c1ccc(F)nc1 | 26 | > 7620 | > 200000 | – | – | – | – | – | – | – | –
8 | Cc1cc(/C=C/C#N)cc(C)c1Oc1nc(Nc2ccc(N3CCS(=O)(=O)CC3)c(C#N)c2)ncc1-c1ccc(F)nc1 | 27 | > 7830 | > 210000 | – | – | – | – | – | – | – | –
9 | Cc1cc(/C=C/C#N)cc(C)c1Oc1nc(Nc2ccc(N3CCN(S(C)(=O)=O)CC3)c(C#N)c2)ncc1-c1cncnc1 | 8.5 | > 24200 | > 206000 | 49 | 290 | 190 | 99 | 890 | 770 | 13 | 39
10 | Cc1cc(/C=C/C#N)cc(C)c1Oc1nc(Nc2ccc(N3CCS(=O)(=O)CC3)c(F)c2)ncc1-c1cccnc1 | 17 | 4850 | 82800 | 64 | – | 420 | 380 | 1560 | 4520 | 12 | 130
11 | Cc1cc(/C=C/C#N)cc(C)c1Oc1nc(Nc2ccc(N3CCS(=O)(=O)CC3)c(F)c2)ncc1-c1cnc(N)nc1 | 6 | 156 | 1000 | – | – | – | – | – | – | – | –
12 | Cc1cc(/C=C/C#N)cc(C)c1Oc1nc(Nc2ccc(N3CCN(S(C)(=O)=O)CC3)c(F)c2)ncc1-c1ccc(F)nc1 | 17 | > 11600 | > 202000 | 51 | – | 350 | 460 | 4540 | 8280 | 34 | 140
13 | Cc1cc(/C=C/C#N)cc(C)c1Oc1nc(Nc2ccc(N3CCN(S(C)(=O)=O)CC3)c(C#N)c2)ncc1-c1cccnc1 | 7.9 | 22700 | 179000 | 37 | 330 | 230 | 150 | 550 | 800 | 11 | 48
14 | Cc1cc(/C=C/C#N)cc(C)c1Oc1nc(Nc2ccc(N3CCN(S(C)(=O)=O)CC3)c(F)c2)ncc1-c1cccnc1 | 19 | > 2140 | > 41700 | 57 | 630 | 640 | 400 | 2030 | 3740 | 24 | 230
15 | Cc1cc(/C=C/C#N)cc(C)c1Oc1nc(Nc2ccc(N3CCN(S(C)(=O)=O)CC3)c(F)c2)ncc1-c1cncnc1 | 16 | > 12900 | > 208000 | 96 | 490 | 313 | 200 | 2200 | 1160 | 28 | 110
16 | Cc1cc(/C=C/C#N)cc(C)c1Oc1nc(Nc2ccc(N3CCS(=O)(=O)CC3)c(C#N)c2)ncc1-c1cnc(F)nc1 | 220 | 110 | 23900 | – | – | – | – | – | – | – | –
17 | Cc1cc(/C=C/C#N)cc(C)c1Oc1nc(Nc2ccc(N3CCS(=O)(=O)CC3)c(F)c2)ncc1-c1ccc(N)nc1 | 3.5 | 239 | 800 | – | – | – | – | – | – | – | –
18 | Cc1cc(/C=C/C#N)cc(C)c1Oc1nc(Nc2ccc(N3CCN(S(C)(=O)=O)CC3)c(C#N)c2)ncc1-c1cnc(N)nc1 | 7.2 | 5390 | 38600 | 39 | – | 96 | 42 | > 38600 | 280 | 6.7 | 27
19 | Cc1cc(/C=C/C#N)cc(C)c1Oc1nc(Nc2ccc(N3CCS(=O)(=O)CC3)c(C#N)c2)ncc1-c1cncnc1 | 9.1 | 258 | 2400 | – | – | – | – | – | – | – | –
20 | Cc1cc(/C=C/C#N)cc(C)c1Oc1nc(Nc2ccc(N3CCS(=O)(=O)CC3)c(C#N)c2)ncc1-c1cccnc1 | 16 | 1340 | 21800 | 50 | 490 | 600 | 140 | 720 | 990 | 9.9 | 54
21 | Cc1cc(/C=C/C#N)cc(C)c1Oc1nc(Nc2ccc(N3CCS(=O)(=O)CC3)c(F)c2)ncc1-c1ccc(F)nc1 | 960 | > 221 | > 212000 | – | – | – | – | – | – | – | –
22 | O=C1Nc2ccc(Cl)cc2[C@@](C#CC2CC2)(C(F)(F)F)O1 [EFAVIRENZ] | 5.2 | – | > 6400 | – | – | – | 9.8 | 280 | 373 | 78 | –
23 | Cc1cc(C#N)cc(C)c1Oc1nc(Nc2ccc(C#N)cc2)nc(N)c1Br [ETRAVIRINE] | 3.8 | – | > 4600 | 9 | – | 8.5 | – | 23 | 52 | – | 6.5
24 | Cc1ccnc2c1NC(=O)c1cccnc1N2C1CC1 [NEVIRAPINE] | – | – | > 15000 | 223 | – | 10300 | 6590 | > 1500 | > 15000 | 5740 | 1760
